Target: T1, MT1
T1 construct: gene MTNR1A; native receptors in primary ovine pinealocytes (MT1 and MT2 not resolved)
Assay: saturation radioligand binding on primary ovine pinealocytes, Scatchard analysis
Type: cell-based, Ovis aries

In the case of COc1ccc2[nH]c(I)c(CCNC(C)=O)c2c1 [2-[^125I]-MLT], the Kd is reported as 2.24 ± 1.1 nM.

— paper PMC8320996, “Negative regulation of melatonin secretion by melatonin receptors in ovine pinealocytes” (PLoS ONE, 2021)
